Reference: US8785457B2 (Cellzome Limited, priority 2009, dated 2014)
Like-named read-outs stand apart in the source and are kept apart here.

How the values were obtained:
PI3 Kgamma (PI3 Kg) = target: T1, PI3 Kgamma (PI3 Kg) (Homo sapiens, UniProt P48736); experiment: kinobeads assay, PI3Kgamma; format: binding
T1 construct: endogenous in cells; host or cells: cell lysate
Description: (§1) The kinobeads assay was performed as a competitive binding assay in which test compounds were added directly into a cell lysate. Test compounds (at various concentrations) and the affinity matrix (beads with immobilized phenylmorpholin-chromen ligand) were added to cell lysate aliquots and allowed to bind to the proteins contained in the lysate sample. After the incubation time the beads with captured proteins were separated from the lysate. Bound proteins were then eluted and the presence of kinases was detected and quantified using a multiplexed immunodetection format. Dose response curves for individual kinases were generated and IC50 values calculated.
(§2) The effect of the compounds on the kinases PI3Kalpha (PI3Ka), PI3 Kbeta (PI3 Kb) and PI3 Kgamma (PI3 Kg) were tested in the kinobeads assay as described (WO-A 2009/098021).

PI3Kalpha (PI3Ka) = target: T2, PI3Kalpha (PI3Ka) (Homo sapiens, UniProt P42336); experiment: kinobeads assay, PI3Kalpha; format: binding; conditions: for PI3Ka: Further Kinobeads Data; for IC50 / Inhibition values (IC50) PI3Ka: kinobeads assay, Table 6; for IC50: read-out: Inhibition values (IC50) PI3Ka
T2 construct: endogenous in cells; host or cells: cell lysate
T2 sequence (P42336 whole entry): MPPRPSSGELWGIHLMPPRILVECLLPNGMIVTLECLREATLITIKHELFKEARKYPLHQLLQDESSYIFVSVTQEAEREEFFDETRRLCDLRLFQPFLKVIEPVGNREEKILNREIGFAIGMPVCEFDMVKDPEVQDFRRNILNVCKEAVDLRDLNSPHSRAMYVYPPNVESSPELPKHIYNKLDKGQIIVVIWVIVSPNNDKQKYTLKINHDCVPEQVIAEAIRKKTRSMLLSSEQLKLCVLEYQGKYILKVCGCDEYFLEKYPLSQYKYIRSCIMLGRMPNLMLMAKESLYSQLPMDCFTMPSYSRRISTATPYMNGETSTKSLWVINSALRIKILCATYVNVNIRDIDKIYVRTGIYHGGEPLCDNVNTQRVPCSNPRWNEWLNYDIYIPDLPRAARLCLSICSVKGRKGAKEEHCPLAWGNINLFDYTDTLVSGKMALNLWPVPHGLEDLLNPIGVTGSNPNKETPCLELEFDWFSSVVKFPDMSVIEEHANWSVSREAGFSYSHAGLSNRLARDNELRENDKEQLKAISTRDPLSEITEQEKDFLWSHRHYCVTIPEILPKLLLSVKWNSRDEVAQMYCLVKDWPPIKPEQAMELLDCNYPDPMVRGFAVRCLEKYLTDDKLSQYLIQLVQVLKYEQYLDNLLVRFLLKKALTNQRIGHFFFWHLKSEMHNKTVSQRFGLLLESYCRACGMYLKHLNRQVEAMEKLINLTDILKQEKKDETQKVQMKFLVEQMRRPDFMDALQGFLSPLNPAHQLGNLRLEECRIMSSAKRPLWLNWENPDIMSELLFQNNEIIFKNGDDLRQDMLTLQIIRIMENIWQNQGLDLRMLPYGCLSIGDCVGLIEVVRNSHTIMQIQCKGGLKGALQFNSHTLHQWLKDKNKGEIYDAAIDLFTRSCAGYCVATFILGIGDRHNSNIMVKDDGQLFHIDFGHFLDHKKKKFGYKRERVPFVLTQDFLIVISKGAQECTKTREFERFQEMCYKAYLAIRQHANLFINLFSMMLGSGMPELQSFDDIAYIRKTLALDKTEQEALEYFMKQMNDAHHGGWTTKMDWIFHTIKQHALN
T2 sequence (P27986 whole entry partner): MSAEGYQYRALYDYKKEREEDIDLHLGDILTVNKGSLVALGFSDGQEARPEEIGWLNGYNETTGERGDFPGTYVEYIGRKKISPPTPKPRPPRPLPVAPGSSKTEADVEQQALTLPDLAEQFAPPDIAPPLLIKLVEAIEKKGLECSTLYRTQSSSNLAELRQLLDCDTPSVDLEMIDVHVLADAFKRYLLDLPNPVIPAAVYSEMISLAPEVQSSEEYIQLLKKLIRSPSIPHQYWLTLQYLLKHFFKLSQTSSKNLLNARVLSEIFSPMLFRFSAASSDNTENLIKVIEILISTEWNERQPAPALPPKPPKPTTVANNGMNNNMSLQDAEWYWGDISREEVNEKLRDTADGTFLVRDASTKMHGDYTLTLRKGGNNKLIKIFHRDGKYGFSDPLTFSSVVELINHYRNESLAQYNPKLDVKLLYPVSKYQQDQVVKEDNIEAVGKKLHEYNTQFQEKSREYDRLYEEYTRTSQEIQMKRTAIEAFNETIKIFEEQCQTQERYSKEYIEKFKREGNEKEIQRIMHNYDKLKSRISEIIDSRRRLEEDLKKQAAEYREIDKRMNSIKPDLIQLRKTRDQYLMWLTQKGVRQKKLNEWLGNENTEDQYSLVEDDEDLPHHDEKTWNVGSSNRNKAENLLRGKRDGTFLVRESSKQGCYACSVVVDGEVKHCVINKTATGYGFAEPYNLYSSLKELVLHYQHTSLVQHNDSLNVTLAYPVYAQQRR
Description: as §1, §2

PI3K delta (PI3 Kd) = target: T3, PI3K delta (PI3 Kd) (Homo sapiens, UniProt O00329); experiment: kinobeads assay, PI3K delta; format: binding
T3 construct: endogenous in cells; host or cells: Jurkat, clone E6-1 (ATCC TIB-152) cell lysate
T3 sequence (O00329 whole entry): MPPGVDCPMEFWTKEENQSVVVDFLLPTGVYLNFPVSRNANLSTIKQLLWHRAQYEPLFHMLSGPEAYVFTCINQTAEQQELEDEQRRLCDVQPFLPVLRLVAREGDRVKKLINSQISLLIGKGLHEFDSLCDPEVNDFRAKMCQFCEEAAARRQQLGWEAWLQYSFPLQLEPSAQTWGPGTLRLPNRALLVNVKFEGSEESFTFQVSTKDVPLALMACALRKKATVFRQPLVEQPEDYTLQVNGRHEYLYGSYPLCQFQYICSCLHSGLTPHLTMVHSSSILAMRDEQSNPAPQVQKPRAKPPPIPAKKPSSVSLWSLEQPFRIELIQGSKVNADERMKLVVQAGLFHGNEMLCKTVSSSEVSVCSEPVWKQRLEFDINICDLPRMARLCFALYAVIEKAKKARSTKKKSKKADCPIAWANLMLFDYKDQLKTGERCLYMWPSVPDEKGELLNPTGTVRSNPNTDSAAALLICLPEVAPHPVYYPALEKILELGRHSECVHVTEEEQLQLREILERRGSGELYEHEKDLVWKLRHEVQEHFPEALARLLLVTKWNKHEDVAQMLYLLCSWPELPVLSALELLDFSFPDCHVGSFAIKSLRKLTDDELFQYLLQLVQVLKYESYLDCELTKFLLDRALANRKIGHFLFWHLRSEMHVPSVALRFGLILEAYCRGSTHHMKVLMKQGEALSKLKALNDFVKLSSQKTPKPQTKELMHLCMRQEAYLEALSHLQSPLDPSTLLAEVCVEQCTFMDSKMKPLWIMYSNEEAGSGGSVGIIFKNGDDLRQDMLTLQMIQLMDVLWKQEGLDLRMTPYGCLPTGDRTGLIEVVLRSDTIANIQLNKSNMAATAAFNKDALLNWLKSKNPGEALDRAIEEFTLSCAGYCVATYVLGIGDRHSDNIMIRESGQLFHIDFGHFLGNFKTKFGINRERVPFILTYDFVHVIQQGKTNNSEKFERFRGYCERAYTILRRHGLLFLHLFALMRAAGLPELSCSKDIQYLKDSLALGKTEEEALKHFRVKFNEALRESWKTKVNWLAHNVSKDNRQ
T3 sequence (P27986 whole entry partner): as the sequence (P27986 whole entry partner) above
Description: (§3) The compounds of the present invention as described were tested in the mTOR kinobeads assay as described below. Briefly, test compounds (at various concentrations) and the affinity matrix with the immobilized phenylmorpholin-chromen ligand (8-(4-aminomethyl-phenyl)-2-morpholin-4-yl-chromen-4-one) were added to cell lysate aliquots and allowed to bind to the proteins in the lysate sample. After the incubation time the beads with captured proteins were separated from the lysate. Bound proteins were then eluted and the presence of mTOR, PI3K delta (PI3 Kd) and DNA-dependent protein kinase (DNA-PK) was detected and quantified using a specific antibody in a dot blot procedure and the Odyssey infrared detection system. Kinobeads assays for PI3K (WO-A 2008/015013) and for kinase selectivity profiling (WO 2006/134056) have been previously described.
as §1
(§4) The affinity matrix (beads with immobilized phenylmorpholin-chromen ligand) was washed two times with 15 ml of 1×DP buffer containing 0.2% NP40 (IGEPAL® CA-630, Sigma, #13021) and then resupended in 5.5 ml of 1×DP buffer containing 0.2% NP40 (10% beads slurry).
(§5) 5×DP buffer: 250 mM Tris-HCl pH 7.4, 25% Glycerol, 7.5 mM MgCl2, 750 mM NaCl, 5 mM Na3VO4, filter the 5×-lysis buffer through 0.22 μm filter and store in aliquots at −80° C. The 5×DP buffer is diluted to 1×DP buffer containing 1 mM DTT and 25 mM NaF.
(§6) Stock solutions of test compounds were prepared in DMSO. In a 96 well plate 30 μl solution of diluted test compounds at 5 mM in DMSO were prepared. Starting with this solution a 1:3 dilution series (9 steps) was prepared. For control experiments (no test compound) a buffer containing 2% DMSO was used. Compound CZC00018052 served as a positive control (PI-103; Calbiochem catalogue number 528100).
(§7) Jurkat cells (ATCC catalogue number TIB-152 Jurkat, clone E6-1) were grown in 1 liter Spinner flasks (Integra Biosciences, #182101) in suspension in RPMI 1640 medium (Invitrogen, #21875-034) supplemented with 10% Fetal Bovine Serum (Invitrogen) at a density between 0.15×10^6 and 1.2×10^6 cells/ml. Cells were harvested by centrifugation, washed once with 1×PBS buffer (Invitrogen, #14190-094) and cell pellets were frozen in liquid nitrogen and subsequently stored at −80° C.
(§8) Jurkat cells were homogenized in a Potter S homogenizer in lysis buffer: 50 mM Tris-HCl, 0.8% NP40, 5% glycerol, 150 mM NaCl, 1.5 mM MgCl2, 25 mM NaF, 1 mM sodium vanadate, 1 mM DTT, pH 7.5. One complete EDTA-free tablet (protease inhibitor cocktail, Roche Diagnostics, 1873580) per 25 ml buffer was added. The material was dounced 10 times using a mechanized POTTER S, transferred to 50 ml falcon tubes, incubated for 30 minutes on ice and spun down for 10 min at 20,000 g at 4° C. (10,000 rpm in Sorvall SLA600, precooled). The supernatant was transferred to an ultracentrifuge (UZ)-polycarbonate tube (Beckmann, 355654) and spun for 1 hour at 100.000 g at 4° C. (33.500 rpm in Ti50.2, precooled). The supernatant was transferred again to a fresh 50 ml falcon tube, the protein concentration was determined by a Bradford assay (BioRad) and samples containing 50 mg of protein per aliquot were prepared. The samples were immediately used for experiments or frozen in liquid nitrogen and stored frozen at −80° C. […]

PI3 Kbeta (PI3 Kb) = target: T4, PI3 Kbeta (PI3 Kb) (Homo sapiens, UniProt P42338); experiment: kinobeads assay, PI3Kbeta; format: binding
T4 construct: endogenous in cells; host or cells: cell lysate
T4 sequence (P42338 whole entry): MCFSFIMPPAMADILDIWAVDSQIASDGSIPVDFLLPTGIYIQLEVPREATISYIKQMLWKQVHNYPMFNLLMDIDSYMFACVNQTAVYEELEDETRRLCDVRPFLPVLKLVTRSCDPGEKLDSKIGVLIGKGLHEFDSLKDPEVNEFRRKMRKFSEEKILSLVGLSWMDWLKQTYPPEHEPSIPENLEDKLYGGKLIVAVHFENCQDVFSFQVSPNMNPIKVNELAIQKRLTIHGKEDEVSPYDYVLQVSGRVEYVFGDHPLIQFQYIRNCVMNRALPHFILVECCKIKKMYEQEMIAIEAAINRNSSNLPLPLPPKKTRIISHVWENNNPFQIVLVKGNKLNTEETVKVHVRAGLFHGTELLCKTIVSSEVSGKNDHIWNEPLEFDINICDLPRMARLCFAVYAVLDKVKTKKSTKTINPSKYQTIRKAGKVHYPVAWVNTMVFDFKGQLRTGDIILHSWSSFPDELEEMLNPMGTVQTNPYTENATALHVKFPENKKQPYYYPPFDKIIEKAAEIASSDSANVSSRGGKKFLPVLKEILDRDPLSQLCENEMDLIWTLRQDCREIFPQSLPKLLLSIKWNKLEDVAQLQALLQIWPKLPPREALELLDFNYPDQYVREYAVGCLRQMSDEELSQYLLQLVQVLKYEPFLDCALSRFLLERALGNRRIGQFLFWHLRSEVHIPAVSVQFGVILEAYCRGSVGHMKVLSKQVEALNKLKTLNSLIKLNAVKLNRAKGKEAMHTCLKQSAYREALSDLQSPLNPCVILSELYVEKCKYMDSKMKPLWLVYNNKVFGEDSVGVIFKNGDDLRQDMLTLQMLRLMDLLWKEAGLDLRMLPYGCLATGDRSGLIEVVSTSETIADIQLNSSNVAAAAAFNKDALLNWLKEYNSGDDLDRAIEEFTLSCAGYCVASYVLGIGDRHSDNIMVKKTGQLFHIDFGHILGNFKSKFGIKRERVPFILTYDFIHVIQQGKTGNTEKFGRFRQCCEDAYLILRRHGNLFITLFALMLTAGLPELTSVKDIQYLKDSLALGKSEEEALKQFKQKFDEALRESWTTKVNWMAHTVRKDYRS
T4 sequence (P27986 whole entry partner): as the sequence (P27986 whole entry partner) above
Description: as §1, §2

[1] = target: T5, DNA-dependent protein kinase (DNA-PK) (Homo sapiens, UniProt P78527); experiment: kinobeads assay, DNA-PK; format: binding
T5 construct: endogenous in cells; host or cells: Jurkat, clone E6-1 (ATCC TIB-152) cell lysate
Description: as §3, §1, §4, §5, §6, §7, §8

mTOR = target: T6, mTOR (Homo sapiens, UniProt P42345); experiment: mTOR kinobeads assay (competitive binding in Jurkat cell lysate, immunodetection)
T6 construct: endogenous in cells; host or cells: Jurkat, clone E6-1 (ATCC TIB-152) cell lysate
Description: The compounds of the present invention as described were tested in the mTOR kinobeads assay as described below. […] After the incubation time the beads with captured proteins were separated from the lysate. Bound proteins were then eluted and the presence of mTOR, PI3K delta (PI3 Kd) and DNA-dependent protein kinase (DNA-PK) was detected and quantified using a specific antibody in a dot blot procedure and the Odyssey infrared detection system.
as §1, §5
as §6, with “used.” for “used. Compound CZC00018052 served as a positive control (PI-103; Calbiochem catalogue number 528100).”
Jurkat cells were homogenized in a Potter S homogenizer in lysis buffer: 50 mM Tris-HCl, 0.8% NP40, 5% glycerol, 150 mM NaCl, 1.5 mM MgCl2, 25 mM NaF, 1 mM sodium vanadate, 1 mM DTT, pH 7.5. […] The material was dounced 10 times using a mechanized POTTER S, transferred to 50 ml falcon tubes, incubated for 30 minutes on ice and spun down for 10 min at 20,000 g at 4° C. (10,000 rpm in Sorvall SLA600, precooled). […] (33.500 rpm in Ti50.2, precooled). The supernatant was transferred again to a fresh 50 ml falcon tube, the protein concentration was determined by a Bradford assay (BioRad) and samples containing 50 mg of protein per aliquot were prepared. The samples were immediately used for experiments or frozen in liquid nitrogen and stored frozen at −80° C.
Jurkat cell lysate (approximately 50 mg protein per plate) was thawed in a water bath at room temperature and then kept on ice. […] The diluted cell lysate was stored on ice.
Plates were sealed and incubated for two hours in a cold room on a Thermoxer with shaking (750 rpm). Afterwards the plate was washed twice with 230 μl washing buffer (1×DP 0.4% NP40). […] The eluate was frozen quickly at −80° C. and stored at −20° C.
The kinases in the eluates were detected and quantified by spotting on Nitrocellulose membranes and using a first antibody directed against the kinase of interest and a fluorescently labeled secondary antibody (anti-mouse or anti-rabbit IRDye™ antibodies from Rockland).
Afterwards the membrane was washed three times for 10 minutes with PBS buffer containing 0.1% Tween 20 at room temperature. […] Afterwards the membrane was washed three times for 10 minutes each with 1×PBS buffer containing 0.1% Tween 20 at room temperature. Then the membrane was rinsed once with PBS buffer to remove residual Tween 20. The membrane was kept in PBS buffer at 4° C. and then scanned with the Odyssey instrument. Fluorescence signals were recorded and analysed according to the instructions of the manufacturer.

[2] = Further Kinobeads Data, read-out: PI3Kg
[3] = Further Kinobeads Data, read-out: PI3Kd
[4] = Further Kinobeads Data, read-out: PI3Kb
[5] = Further Kinobeads Data, read-out: DNAPK
[6] = Further Kinobeads Data, read-out: mTor
[7] = kinobeads assay, Table 6, read-out: Inhibition values (IC50) PI3Kg
[8] = kinobeads assay, Table 6, read-out: Inhibition values (IC50) PI3Kd
[9] = kinobeads assay, Table 6, read-out: Inhibition values (IC50) PI3Kb
[10] = kinobeads assay, Table 6, read-out: Inhibition values (IC50) DNAPK
[11] = kinobeads assay, Table 6, read-out: Inhibition values (IC50) mTOR

T1 sequence (P48736 whole entry): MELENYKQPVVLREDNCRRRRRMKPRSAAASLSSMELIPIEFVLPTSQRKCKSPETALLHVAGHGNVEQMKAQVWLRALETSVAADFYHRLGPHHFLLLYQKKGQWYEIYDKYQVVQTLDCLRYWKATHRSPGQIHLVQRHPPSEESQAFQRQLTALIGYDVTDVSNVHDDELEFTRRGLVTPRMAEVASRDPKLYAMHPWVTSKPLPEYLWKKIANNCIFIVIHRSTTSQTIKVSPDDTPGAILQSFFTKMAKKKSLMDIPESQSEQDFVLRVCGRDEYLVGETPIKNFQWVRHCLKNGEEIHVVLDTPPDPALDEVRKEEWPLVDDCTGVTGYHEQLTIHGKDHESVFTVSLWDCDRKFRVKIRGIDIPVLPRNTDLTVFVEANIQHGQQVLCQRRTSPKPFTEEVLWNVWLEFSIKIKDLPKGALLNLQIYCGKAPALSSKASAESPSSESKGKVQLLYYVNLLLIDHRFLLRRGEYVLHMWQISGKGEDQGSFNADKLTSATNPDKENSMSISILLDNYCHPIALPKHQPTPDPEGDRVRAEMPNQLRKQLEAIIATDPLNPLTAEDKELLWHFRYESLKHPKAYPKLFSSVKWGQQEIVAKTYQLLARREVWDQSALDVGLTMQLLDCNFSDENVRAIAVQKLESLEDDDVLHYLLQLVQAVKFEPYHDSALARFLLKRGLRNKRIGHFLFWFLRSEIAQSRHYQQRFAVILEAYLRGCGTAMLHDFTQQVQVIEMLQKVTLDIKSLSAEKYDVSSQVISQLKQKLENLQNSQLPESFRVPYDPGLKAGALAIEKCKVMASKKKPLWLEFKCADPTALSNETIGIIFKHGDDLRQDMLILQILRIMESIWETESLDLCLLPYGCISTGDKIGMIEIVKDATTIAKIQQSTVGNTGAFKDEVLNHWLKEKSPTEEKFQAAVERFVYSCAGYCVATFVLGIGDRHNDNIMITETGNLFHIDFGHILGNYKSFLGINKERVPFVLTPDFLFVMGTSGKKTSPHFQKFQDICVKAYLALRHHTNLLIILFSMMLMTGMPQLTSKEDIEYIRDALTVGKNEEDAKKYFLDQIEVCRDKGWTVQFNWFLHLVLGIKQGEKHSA

Row | IC50 (PI3 Kgamma (PI3 Kg); [2]) [µM] | PI3Ka (PI3Kalpha (PI3Ka)) | IC50 (PI3K delta (PI3 Kd); [3]) [µM] | IC50 (PI3 Kbeta (PI3 Kb); [4]) [µM] | IC50 [1, 5] [µM] | IC50 (mTOR; [6]) [µM] | IC50 (PI3 Kgamma (PI3 Kg); [7]) [µM] | IC50 (PI3Kalpha (PI3Ka)) [µM] | IC50 (PI3K delta (PI3 Kd); [8]) [µM] | IC50 (PI3 Kbeta (PI3 Kb); [9]) [µM] | IC50 [1, 10] [µM] | IC50 (mTOR; [11]) [µM] | Inhibition values (IC50) PI3Ka (PI3Kalpha (PI3Ka)) | Structure (SMILES)
1 | > 10 | D (D >10 μM) | 1 to 10 | > 10 | > 10 | < 0.1 | – | – | – | – | – | – | – | CC(C)N1Cc2nc(-c3ccc(NC(=O)NCCO)cc3F)nc(N3CCOCC3)c2C1 [Example 184, 1-(3-fluoro-4-(6-isopropyl-4-morpholino-6,7-dihyro-5H-pyrrolo[3,4-d]pyrimidin-2-yl)phenyl)-3-(2-hydroxyethyl)urea]
2 | – | – | – | – | – | – | > 10 | 1 to 10 | > 10 | > 10 | > 10 | 0.1 to 1 | – | CCNC(=O)Nc1cnc(-c2nc3c(c(N4CCOC[C@@H]4C)n2)CN(C(=O)OCC)C3)cn1 [Example 116, (S)-ethyl-2-(5-(3-ethylureido)pyrazin-2-yl)-4-(3-methylmorpholino)-5H-pyrrolo[3,4-d]pyrimidine-6(7H)-carboxylate]
3 | – | – | – | – | – | – | > 10 | – | > 10 | > 10 | > 10 | 0.1 to 1 | D (D >10 μM) | CCNC(=O)Nc1ccc(-c2nc3c(c(N4CCOC[C@@H]4C)n2)CN(C(=O)CCN(C)C)CC3)cc1 [Example 92, (S)-1-(4-(6-(3-(dimethylamino)propanoyl)-4-(3-methylmorpholino)-5,6,7,8-tetrahydropyrido[4,3-d]pyrimidin-2-yl)phenyl)-3-ethylurea]
4 | > 10 | D (D >10 μM) | > 10 | > 10 | > 10 | < 0.1 | – | – | – | – | – | – | – | CCNC(=O)Nc1ccc(-c2nc3c(c(N4CCOCC4)n2)CN(C(C)=O)C3)c(F)c1 [Example 161, 1-(4-(6-acetyl-4-morpholino-6,7-dihydro-5H-pyrrolo[3,4-d]pyrimidin-2-yl)-3-fluorophenyl)-3-ethylurea]
5 | – | – | – | – | – | – | > 10 | – | > 10 | > 10 | > 10 | 0.1 to 1 | D (D >10 μM) | CCNC(=O)Nc1ccc(-c2nc3c(c(N4CCOC[C@@H]4C)n2)CN(C2CCN(C(C)=O)CC2)C3)cc1F [Example 117, (S)-1-(4-(6-(1-acetylpiperidin-4-yl)-4-(3-methylmorpholino)-6,7-dihydro-5H-pyrrolo[3,4-d]pyrimidin-2-yl)-2-fluorophenyl)-3-ethylurea]
6 | > 10 | D (D >10 μM) | > 10 | > 10 | > 10 | 1 to 10 | – | – | – | – | – | – | – | CCNC(=O)Nc1ccc(-c2nc3c(c(N4CCOC[C@@H]4C)n2)CN(C)C3)c(F)c1F [Example 140, (S)-1-(2,3-difluoro-4-(6-methyl-4-(3-methylmorpholino)-6,7-dihydro-5H-pyrrolo[3,4-d]pyrimidin-2-yl)phenyl)-3-ethylurea]
7 | – | – | – | – | – | – | > 10 | – | > 10 | > 10 | > 10 | 0.1 to 1 | D (D >10 μM) | CCNC(=O)Nc1ccc(-c2nc3c(c(N4CCOC[C@@H]4C)n2)CN(C(=O)C2CCN(C(C)=O)CC2)C3)cc1F [Example 123, (S)-1-(4-(6-(1-acetylpiperidine-4-carbonyl)-4-(3-methylmorpholino)-6,7-dihydro-5H-pyrrolo[3,4-d]pyrimidin-2-yl)-2-fluorophenyl)-3-ethylurea]
8 | > 10 | D (D >10 μM) | > 10 | > 10 | > 10 | 0.1 to 1 | – | – | – | – | – | – | – | COC(=O)N1Cc2nc(-c3ccc(NC(=O)NCCO)cc3F)nc(N3CCOCC3)c2C1 [Example 175, Methyl 2-(2-fluoro-4-(3-(2-hydroxyethyl)ureido)phenyl)-4-morpholino-5H-pyrrolo[3,4-d]pyrimidine-6(7H)-carboxylate]
9 | – | – | – | – | – | – | > 10 | 1 to 10 | 1 to 10 | 1 to 10 | > 10 | < 0.1 | – | C[C@H]1COCCN1c1nc(-c2ccc(NC(=O)NC3CC3)cc2)nc2c1CN(C(=O)CCN1CCCC1=O)C2 [Example 132, (S)-1-cyclopropyl-3-(4-(4-(3-methylmorpholino)-6-(3-(2-oxopyrrolidin-1-yl)propanoyl)-6,7-dihydro-5H-pyrrolo[3,4-d]pyrimidin-2-yl)phenyl)urea]
10 | > 10 | D (D >10 μM) | > 10 | > 10 | > 10 | < 0.1 | – | – | – | – | – | – | – | CC(C)(C)OC(=O)N1Cc2nc(-c3ccc(NC(=O)NC4CC4)cc3F)nc(N3CCOCC3)c2C1 [Example 143, tert-Butyl 2-(4-(3-cyclopropylureido)-2-fluorophenyl)-4-morpholino-5H-pyrrolo[3,4-d]pyrimidine-6(7H)-carboxylate]
